Several values for one entry are separate records, joined by “and”; a condition that tells them apart may be missing. Equal values may be shown once. Where a name gives a salt, the structure may show the parent alone.
The compounds below were run on ATF4 translation (ATF4 pathway), SH-SY5Y-ATF4-NanoLuc cells (assay: ATF4 cell based assay (ATF4 5'-UTR NanoLuc luciferase reporter, Thapsigargin induced cellular stress)). Settings: SH-SY5Y-ATF4-NanoLuc cells challenged with Thapsigargin for 14-18 hours; average of two or more experimental runs; hydrochloride; read-out: average ATF4 pathway inhibitory activity (IC50).
From the text: The ATF4 reporter assay measures the effect of Thapsigargin induced cellular stress on ATF4 expression. For this reporter assay, a stable cell line was created by transfecting SH-SY5Y cells with a plasmid containing the NanoLuc® luciferase gene fused to the 5′-UTR of ATF4, under the control of the CMV promoter. The ATF4 5′-UTR contains two open reading frames which mediate the cellular stress-dependent translation of the reporter gene. Clones stably expressing the reporter construct were isolated and selected based on the luminescence response to thapsigargin and inhibition of this signal by test compounds. Briefly, SH-SY5Y-ATF4-NanoLuc cells were challenged with Thapsigargin for 14-18 hours to determine the stress effect with or without test compounds.
Cells were propagated in growth media consisting of 90% DMEM F12 (InVitrogen #11320-033), 10% Fetal Bovine Serum (Gibco #10438-026), 5 mM Glutamax (Gibco #35050-061), 5 mM Hepes, (Gibco #15630-080), and 0.5 mg/ml Geneticin (Gibco #10131-027). Cells were prepared for the assay by removing all media from cells, washing the plated cells with phosphate buffered saline, and detached by adding a solution comprised of 10% Tryple express solution (InVitrogen12604-021) and 90% enzyme-free cell dissociation buffer HANKS base (Gibco 13150-016). The trypsin was deactivated by adding assay media comprised of 90% phenol-red free DMEM F12 (InVitrogen, 11039), 10% Fetal Bovine Serum (Gibco #10438-026), (5 mM Glutamax (Gibco #35050-061), 5 mM Hepes, (Gibco #15630-080), and 0.5 mg/ml Geneticin (Gibco #10131-027). Suspended cells were spun down at 300 g for 5 min, the supernatant was removed and the cell pellet was suspended in warm media (30-37° C.) comprised as above at (1e6 cell/ml).
Assay plates were prepared by adding 250 nL of compound stock solution in 100% DMSO to each well, followed by dispensing 20 microliters/well cell suspension to deliver 15-20 k cell/well. Cells were incubated for 1 hour at 37° C. Then, 5 μL of 1.5 μM or 1 μM of Thapsigargin (final concentration: 200-300 nM) was added to each well of cells. Assay plates containing cells were incubated for 14-18 hours at 37° C.
The measurement of luciferase produced by the ATF4 constructs was measured as follows. Aliquots of the Nano-Glo reagent (Nano-Glo® Luciferase Assay Substrate, Promega, N113, Nano-Glo® Luciferase Assay Buffer, Promega, N112 (parts of Nano-Glo® Luciferase Assay System, N1150) were brought to room temperature, the substrate and buffer were mixed according to manufacturer's instructions. The cell plates were equilibrated to room temperature. 25 microliters/well of the mixed Nano-Glo reagent were dispensed into assay wells and pulse spun to settle contents and the plate was sealed with film. The plates were incubated at room temperature for 1 hour before detecting luminescence on an Envision plate reader.
Compounds of the invention are tested for activity against ATF4 translation in the above assay.
With `O=C(COc1ccc(Cl)nc1)N[C@H]1[C@@H]2CN(CCCOc3ccc(Cl)cc3)C[C@@H]21` [Example 71, N-((1R,5S,6s)-3-(3-(4-chlorophenoxy)propyl)-3-azabicyclo[3.1.0]hexan-6-yl)-2-((6-chloropyridin-3-yl)oxy)acetamide hydrochloride] the IC50 was 0.137 µM.

Same assay, conditions: SH-SY5Y-ATF4-NanoLuc cells challenged with Thapsigargin for 14-18 hours; average of two or more experimental runs; read-out: average ATF4 pathway inhibitory activity (IC50)
`O=C(COc1ccc(Cl)cc1)N1CC2CN(C(=O)COc3ccc(Cl)cc3)CC2C1` (centres unmarked) [Example 6, 1,1′-(tetrahydropyrrolo[3,4-c]pyrrole-2,5(1H,3H)-diyl)bis(2-(4-chlorophenoxy)ethanone)] was tested, and the IC50 was 1 to 10 µM.
`O=C(COc1ccc(Cl)cc1)NCC1CCN(C(=O)CCOc2ccc(Cl)cc2)C1` (centres unmarked) [Example 14, 2-(4-chlorophenoxy)-N-((1-(3-(4-chlorophenoxy)propanoyl)pyrrolidin-3-yl)methyl)acetamide] showed an IC50 of less than 0.1 µM.
For `O=C(COc1ccc(Cl)cc1)NCC1CCN(CC(O)COc2ccc(Cl)cc2)C1` (centres unmarked) [Example 77, 2-(4-chlorophenoxy)-N-((1-(3-(4-chlorophenoxy)-2-hydroxypropyl)pyrrolidin-3-yl)methyl)acetamide], the IC50 was < 0.1 µM and 0.065 µM.
With `O=C(COc1ccc(Cl)cc1)NCC1CCN(CCCOc2ccc(Cl)cn2)C1` (centres unmarked) [Example 69, 2-(4-chlorophenoxy)-N-((1-(3-((5-chloropyridin-2-yl)oxy)propyl)pyrrolidin-3-yl)methyl)acetamide] the IC50 was less than 0.1 µM.
For `O=C(COc1ccc(Cl)cc1)NCC1CCN(CCCOc2ccc(Cl)cc2)C1=O` (centres unmarked) [Example 75, 2-(4-chlorophenoxy)-N-((1-(3-(4-chlorophenoxy)propyl)-2-oxopyrrolidin-3-yl)methyl)acetamide], the IC50 was 0.101 to 1 µM.
In the case of `O=C(COc1ccc(Cl)cc1)NOC1CCN(C(=O)COc2ccc(Cl)cc2)C1` (centres unmarked) [Example 33, 2-(4-chlorophenoxy)-N-((1-(2-(4-chlorophenoxy)acetyl)pyrrolidin-3-yl)oxy)acetamide], the IC50 is reported as 0.101 to 1 µM.
Work on `O=C(COc1ccc(Cl)cc1)N[C@H]1[C@@H]2CN(CCCOc3ccc(Cl)cn3)C[C@@H]21` [Example 53, 2-(4-chlorophenoxy)-N-((1R,5S,6s)-3-(3-((5-chloropyridin-2-yl)oxy)propyl)-3-azabicyclo[3.1.0]hexan-6-yl)acetamide] yielded an IC50 of 0.101 to 1 µM.
`O=C(COc1ccc(Cl)cc1)NCC1CCN(C(=O)CCCc2ccc(Cl)cc2)C1` (centres unmarked) [Example 38, 2-(4-chlorophenoxy)-N-((1-(4-(4-chlorophenyl)butanoyl)pyrrolidin-3-yl)methyl)acetamide] gave an IC50 of less than 0.1 µM.
In the case of `Cc1cc(Cl)ccc1OCCCN1CCC(CNC(=O)COc2ccc(Cl)cc2)C1` (centres unmarked) [Example 67, N-((1-(3-(4-chloro-2-methylphenoxy)propyl)pyrrolidin-3-yl)methyl)-2-(4-chlorophenoxy)acetamide], the IC50 is reported as 0.101 to 1 µM.
With `O=C(COc1ccc(Cl)cc1)NCC1CCN(C(=O)C2Cc3cc(Cl)ccc3O2)C1` (centres unmarked) [Example 9, N-((1-(5-chloro-2,3-dihydrobenzofuran-2-carbonyl)pyrrolidin-3-yl)methyl)-2-(4-chlorophenoxy)acetamide] the IC50 was 0.101 to 1 µM.
`O=C(COc1ccc(Cl)nc1)N[C@H]1[C@@H]2CN(CCCOc3ccc(Cl)cc3)C[C@@H]21` [Example 51, N-((1R,5S,6s)-3-(3-(4-chlorophenoxy)propyl)-3-azabicyclo[3.1.0]hexan-6-yl)-2-((6-chloropyridin-3-yl)oxy)acetamide] was tested, and the IC50 was less than 0.1 µM.
`O=C(COc1ccc(Cl)nc1)NCC1CCN(C(=O)COc2ccc(Cl)cc2)C1` (centres unmarked) [Example 19, N-((1-(2-(4-chlorophenoxy)acetyl)pyrrolidin-3-yl)methyl)-2-((6-chloropyridin-3-yl)oxy)acetamide] was tested, and the IC50 was 1 to 10 µM.
Compound `O=C(COc1ccc(Cl)cc1)NCC1CCN(CC(=O)Nc2ccc(Cl)cc2)C1` (centres unmarked) [Example 4, 2-(4-chlorophenoxy)-N-((1-(2-((4-chlorophenyl)amino)-2-oxoethyl)pyrrolidin-3-yl)methyl)acetamide] has an IC50 of less than 0.1 µM.
`O=C(COc1ccc(Cl)cc1)NCC1CCN(CCCOc2ccc(Cl)cc2Cl)C1` (centres unmarked) [Example 66, 2-(4-chlorophenoxy)-N-((1-(3-(2,4-dichlorophenoxy)propyl)pyrrolidin-3-yl)methyl)acetamide] was tested, and the IC50 was 0.101 to 1 µM.
In the case of `O=C(COc1ccc(Cl)cn1)NCC1CCN(CCCOc2ccc(Cl)cc2)C1` (centres unmarked) [Example 56, N-((1-(3-(4-chlorophenoxy)propyl)pyrrolidin-3-yl)methyl)-2-((5-chloropyridin-2-yl)oxy)acetamide], the IC50 is reported as 0.101 to 1 µM.
In the case of `O=C(COc1ccc(Cl)cc1)N[C@H]1[C@@H]2CN(CC(O)COc3ccc(Cl)cc3)C[C@@H]21` (stereo partly drawn) [Example 76, 2-(4-chlorophenoxy)-N-((1R,5S,6s)-3-(3-(4-chlorophenoxy)-2-hydroxypropyl)-3-azabicyclo[3.1.0]hexan-6-yl)acetamide], the IC50 is reported as less than 0.1 µM.
In the case of `O=C(COc1ccc(Cl)cc1)N[C@H]1[C@@H]2CN(C(=O)C3CC3c3ccc(Cl)cc3)C[C@@H]21` (stereo partly drawn) [Example 37, 2-(4-chlorophenoxy)-N-((1R,5S,6s)-3-(2-(4-chlorophenyl)cyclopropane-1-carbonyl)-3-azabicyclo[3.1.0]hexan-6-yl)acetamide], the IC50 is reported as < 0.1 µM and 0.0695 µM.
For `O=C(COc1ccc(Cl)cc1)NCC1CCN(CCCOc2ccc(Cl)c(Cl)c2)C1` (centres unmarked) [Example 61, 2-(4-chlorophenoxy)-N-((1-(3-(3,4-dichlorophenoxy)propyl)pyrrolidin-3-yl)methyl)acetamide], the IC50 was less than 0.1 µM.
Compound `O=C(COc1ccc(Cl)c(C(F)(F)F)c1)NCC1CCN(CCCOc2ccc(Cl)cc2)C1` (centres unmarked) [Example 72, 2-(4-chloro-3-(trifluoromethyl)phenoxy)-N-((1-(3-(4-chlorophenoxy)propyl)pyrrolidin-3-yl)methyl)acetamide] has an IC50 of less than 0.1 µM.
`CC1CC(CNC(=O)COc2ccc(Cl)cc2)CN1C(=O)COc1ccc(Cl)cc1` (centres unmarked) [Example 39, 2-(4-chlorophenoxy)-N-((1-(2-(4-chlorophenoxy)acetyl)-5-methylpyrrolidin-3-yl)methyl)acetamide] gave an IC50 of 0.101 to 1 µM.
For `O=C(COc1ccc(Cl)cc1)NCC1CCN(CCOc2ccc(Cl)nc2)C1` (centres unmarked) [Example 13, 2-(4-chlorophenoxy)-N-((1-(2-((6-chloropyridin-3-yl)oxy)ethyl)pyrrolidin-3-yl)methyl)acetamide], the IC50 was 1 to 10 µM.
For `O=C(COc1ccc(Cl)cc1)NC[C@@H]1CCN(CCCOc2ccc(Cl)cc2)C1` [Example 70, (S)-2-(4-chlorophenoxy)-N-((1-(3-(4-chlorophenoxy)propyl)pyrrolidin-3-yl)methyl)acetamide], the IC50 was 0.101 to 1 µM.
Compound `O=C(COc1ccc(Cl)cc1)NCC1CCN(CCCOc2cccc(Cl)c2)C1` (centres unmarked) [Example 50, 2-(4-chlorophenoxy)-N-((1-(3-(3-chlorophenoxy)propyl)pyrrolidin-3-yl)methyl)acetamide] has an IC50 of 0.101 to 1 µM.
`O=C(COc1ccc(F)cc1Cl)NCC1CCN(CCCOc2ccc(Cl)cc2)C1` (centres unmarked) [Example 46, 2-(2-chloro-4-fluorophenoxy)-N-((1-(3-(4-chlorophenoxy)propyl)pyrrolidin-3-yl)methyl)acetamide] showed an IC50 of 0.101 to 1 µM.
Work on `O=C(COc1ccc(Cl)cc1)NCC1CCN(C(=O)COc2cncc(Cl)c2)C1` (centres unmarked) [Example 10, 2-(4-chlorophenoxy)-N-((1-(2-((5-chloropyridin-3-yl)oxy)acetyl)pyrrolidin-3-yl)methyl)acetamide] yielded an IC50 of 1 to 10 µM.
With `O=C(COc1ccc(Cl)c(Cl)c1)NCC1CCN(CCCOc2ccc(Cl)cc2)C1` (centres unmarked) [Example 44, N-((1-(3-(4-chlorophenoxy)propyl)pyrrolidin-3-yl)methyl)-2-(3,4-dichlorophenoxy)acetamide] the IC50 was less than 0.1 µM.

Same assay, conditions: read-out: average ATF4 pathway inhibitory activity (IC50)
Work on `O=C(COc1ccc(Cl)cc1)NC[C@@H]1CCN(C(=O)COc2ccc(Cl)cc2)C1` [Example 29, (S)-2-(4-chlorophenoxy)-N-((1-(2-(4-chlorophenoxy)acetyl)pyrrolidin-3-yl)methyl)acetamide] yielded an IC50 of 0.101 to 1 µM.
`O=C(COc1ccc(Cl)cc1)NCC1CCN(CCOc2ccc(Cl)cc2)C1` (centres unmarked) [Example 2, 2-(4-chlorophenoxy)-N-((1-(2-(4-chlorophenoxy)ethyl)pyrrolidin-3-yl)methyl)acetamide] was tested, and the IC50 was less than 0.1 µM.
